# Measured values as given in US12070505B2, “Targeted peptide-drug conjugates” (priority 2021, dated 2024).
# Values joined by “and” are separate entries in the source; they are usually repeats but may differ in a detail not shown here. Equal entries are not always repeated.
# Experiments:
# MDA-231R cells = assay: LC50 by CCK-8 assay, Dox-resistant MDA-231R; assay type: cell-based
# Procedure: Dox-resistant Cell Lines. Acquired resistance to Dox was induced in wild-type triple-negative breast cancer cell line MDA-MB-231 (MDA-231WT) as described before (Aliabadi, H. M.; et al. J. Control. Release 172:219-228, 2013, which is incorporated herein by reference). Briefly, MDA-231WT cells were exposed to Dox at an initial concentration of 0.05 μg/mL for one week or three consecutive expansions (whichever came later). […] Resistance induction was confirmed via calculation of LC50 following a sigmoidal effect model explained elsewhere (Bousoik, E.; et al. Front. Oncol. 9:1070, 2019, which is incorporated herein by reference) and determination of P-glycoprotein (P-gp) expression.
# The cytotoxicity of the peptide-Dox conjugate in resistant triple-negative breast cancer and uterine sarcoma cell lines (MDA-231R, MDA-231WT, and MES-SA/MX2) was evaluated by a Cell Counting 8 (CCK8) KIT. The peptide-Dox conjugate was added to the cells in triplicate with different concentrations (0-40 μM). Cells were incubated at 37° C. and 5% CO2 for 24 h. After this incubation period, 10 μL of CCK8 reagent was added to each well, and plates were incubated at the same conditions for 2 h. The absorbance of each well was determined at 450 nm using the SpectraMAX M5 microplate reader. After subtracting the signal from blank wells that contain medium without cells in the plate with CCK-8 solution added, the results were normalized to cells treated with normal saline (considered as 100%)
# Efficiency in Dox-Resistant Cells. In order to compare the cytotoxic effect of free and peptide-conjugated Dox in Dox-resistant cells, MDA-231WT (as a Dox-sensitive cell line as control) and MDA-231R and MES-SA/MX2 cells as Dox-resistant cells were exposed to a wide range of Dox (or Dox-equivalent for the peptide-conjugated drug) concentrations (0.05-40 μM). Cells were seeded in 96-well plates with approximately 50% confluency and were incubated for 24 h in 37° C. and 5% CO2. […] The cell viability was determined after this incubation period using the CCK-8 assay, as explained above. […]
# H9C2 cells [1] = assay: Fluorescence/confocal microscopy uptake in heart cells (Example 1); assay type: cell-based, rat; details: 5 μM
# Procedure: Fluorescence and Confocal Microscopy. CCRF-CEM, SKOV-3, and H9C2 cells were seeded with EMEM media overnight on coverslips in six-well plates. Then the medium was removed and washed with opti-MEM. The cells were treated with Dox and the peptide-Dox conjugate (5 μM) in opti-MEM for different time intervals (3, 24, and 72 h) at 37° C. After 3 h incubation, the media containing the compound were removed, followed by washing with PBS three times. Then coverslips were placed on a drop of mounting medium on a microscope slide with the cell-attached side facing down. Fluorescence microscopy and laser scanning confocal microscopy were carried out using a Keyence Microscope System and Nikon AIR system, respectively. The cells were imaged using rhodamine and phase contrast channels.
# In a separate experiment, confocal microscopy was used as follows. (i) Internalization of [R5K]W7A-Dox conjugate vs. free Dox was determined in Dox-resistant MDA-MB-231 and ME5-SA/MX2 cells as compared to the wild-type MDA-MB-231 cells. The cellular internalization was evaluated in Dox-sensitive and -resistant cells to study the effect of overexpression of the MDR efflux proteins on the Dox internalization by the peptide conjugates. […] (ii) Internalization of Dox and [R5K]W7A-Dox was determined into normal heart muscle cells. […]
# [2] = test system: uterine sarcoma cells (MES-SA/MX2); details: 5 μM
# Procedure: In Vitro Cytotoxicity Assay of Peptide-Drug Conjugates. […] In brief, CCRF-CEM cells were seeded at 50,000 cells in 0.1 mL per well in 98-well plates. In the case of other cell lines, the cells were seeded at 5,000 cells (0.1 mL per well in 96-well plates). […] Dox (5 μM) was used as a positive control, while water and cell culture medium were used as negative controls. The compounds were dissolved in water; water was used as a negative control to normalize the data. After the incubation period, MTS reagent (20 μL) was added to each well. The incubation was continued for 2 h. Cell viability was then determined by determination of the fluorescence intensity at 490 nm using a SpectraMax M2 microplate spectrophotometer. The percentage of cell viability was then calculated using the following equation: [(OD value of cells treated with the compound)−(OD value of culture medium)]/[(OD value of control cells)−(OD value of culture medium)]×100% (FIGS. 6-9).
# LLC-PK1 kidney cells = assay: Cytotoxicity, MTS assay, normal kidney cells; details: 5 μM
# Procedure: (§1) In Vitro Cytotoxicity Assay of Peptide-Drug Conjugates. The cytotoxicity of the compounds was determined by using human leukemia cell line (CCRF-CEM), human ovarian adenocarcinoma cells (SKOV-3) cells, kidney cell line (LLC-PK1), gastric adenocarcinoma cells (AGS), and heart/myocardium cells (H9C2) to evaluate the toxicity of the generated peptides according to a previously reported procedure (Rahman, A.; et al. Proc. Am. Assoc. Cancer Res. 26:2295-2299, 1985, which is incorporated herein by reference). In brief, CCRF-CEM cells were seeded at 50,000 cells in 0.1 mL per well in 98-well plates. In the case of other cell lines, the cells were seeded at 5,000 cells (0.1 mL per well in 96-well plates). The cells were seeded in medium (RPMI-1640 containing FBS (10%)), 24 h prior to the experiment. The compounds at different concentrations (10-50 μM) were added to each well in triplicate and incubated for 24 and 72 h at 37° C. in a humidified atmosphere of 5% CO2. Dox (5 μM) was used as a positive control, while water and cell culture medium were used as negative controls. The compounds were dissolved in water; water was used as a negative control to normalize the data. After the incubation period, MTS reagent (20 μL) was added to each well. The incubation was continued for 2 h. Cell viability was then determined by determination of the fluorescence intensity at 490 nm using a SpectraMax M2 microplate spectrophotometer.
# H9C2 cells [3] = assay: Cytotoxicity, MTS assay, normal heart muscle cells (Example 1); details: 5 μM
# Procedure: as §1
compound,measurement,setting,value
"COc1cccc2c1C(=O)c1c(O)c3c(c(O)c1C2=O)C[C@@](O)(C(=O)CO)C[C@@H]3O[C@H]1C[C@H](N)[C@H](O)[C@H](C)O1 [Dox, doxorubicin, reference compound]",CC50,"MDA-231R cells; MDA-231R (Dox-resistant), FIG. 10: after 72 h",36 µM
same,"LC50 in MDA-MB-231R cells, times higher than the naïve cells",MDA-231R cells; resistance induction,more than 50 times
same,"uptake in heart cells (microscopy, words)",H9C2 cells [1],significant uptake
same,Cell Viability (%) after 72 h,[2],119 ± 5%
same,toxicity,[2]; 72 h,did not show any toxicity
same,reduction of cell survival,"LLC-PK1 kidney cells; LLC-PK1, 24 h",64%
same,reduction of cell survival,"LLC-PK1 kidney cells; LLC-PK1, 72 h",77%
same,reduction of viability of kidney cells,"LLC-PK1 kidney cells; LLC-PK1, time not stated",85%
same,Cell Viability (%) after 24 h,LLC-PK1 kidney cells; normal kidney LLC-PK1,44 ± 0% and 48 ± 2%
same,reduction of cell survival,"H9C2 cells [3]; H9C2, 24 h",20%
same,reduction of cell survival,"H9C2 cells [3]; H9C2, 72 h",44%
same,reduction of cell survival,"H9C2 cells [3]; H9C2, 96 h",44%
same,reduction of viability of heart cells,"H9C2 cells [3]; H9C2, time not stated",44%
same,Cell Viability (%) after 24 h,H9C2 cells [3]; normal heart H9C2,80 ± 2%
same,Cell Viability (%) after 72 h,H9C2 cells [3]; normal heart H9C2,56 ± 3%
same,Cell Viability (%) after 96 h,H9C2 cells [3]; normal heart H9C2,56 ± 1%
